Reference: article PMC8954523 (Pharmaceutics, 2022)

Test: Dissolution and solvation thermodynamic functions (van't Hoff; solubility minus sublimation)
Assay type: physicochemical
Procedure: The dissolution thermodynamic parameters on the standard state were determined using mole fraction unitary units. […] Since the resulting solutions are very dilute, and their densities are very close to those of the pure solvents. The density values of the pure solvents were used in calculations (Table S1). […] The temperature dependences of the experimental solubility were treated mathematically by the van't Hoff equation, and the apparent solution enthalpies ΔHsol0 were determined as follows:(3) ∂(lnX2)/∂T=ΔHsol0/RT^2 […] Next, the apparent solution entropies ΔSsol0 were derived by the equation:(5) ΔGsol0=ΔHso[…] The solvation of one mole of the solute molecules in the solvent can be defined as the total change of the standard thermodynamic functions ( ΔGsolv0 , ΔHsolv0 , ΔSsolv0 ) of the compound upon transferring it from the gaseous phase (ideal gas; single molecules without interaction) into the solvent. The transfer process can be presented as the difference between the dissolution and sublimation thermodynamic functions by:(6) ΔYsolv0=ΔYso[…] where ΔY^0 is the standard change of any of the thermodynamic functions (ΔG^0, ΔH^0, ΔS^0) of solvation ( ΔYsolv0 ), dissolution ( ΔYsol0 ) or sublimation ( ΔYsubo ).

[1] = Table S6, n-hexane, all studied temperatures
[2] = Table S6, water, all studied temperatures

Molecule CC(O)(CS(=O)(=O)c1ccc(F)cc1)C(=O)Nc1ccc(C#N)c(C(F)(F)F)c1 (stereo not shown) [BCL, bicalutamide] has a ζTSsolv (Table S6, n-hexane, 293.15 K) of 37.96%, a TΔSsol0 (Table S6, n-hexane, 298.15 K) of 3.59 kcal/mol and a ΔGsol0 (Table S6, n-hexane, 298.15 K) of 8.174 kcal/mol. For the same molecule, the ΔSsol0 (Table S6, n-hexane, 298.15 K) was 50.70 J∙mol-1·K-1, the ζHsolv (Table S6, n-hexane, 298.15 K) was 62.20% and the “−TΔSsolv0” value (Table S6, n-hexane, 298.15 K) was 10.97 kcal/mol. The “−ΔSsolv0” value (Table S6, n-hexane, 298.15 K) was 153.88 J∙mol-1·K-1, the TΔSsol0 (Table S6, n-hexane, 303.15 K) was 3.681 kcal/mol and the ΔGsol0 (Table S6, n-hexane, 303.15 K) was 8.078 kcal/mol. For the same molecule, the ΔSsol0 (Table S6, n-hexane, 303.15 K) was 50.81 J∙mol-1·K-1, the ζTSsolv (Table S6, n-hexane, 303.15 K) was 37.65% and the “−ΔSsolv0” value (Table S6, n-hexane, 303.15 K) was 150.42 J∙mol-1·K-1. For the same molecule, the TΔSsol0 (Table S6, n-hexane, 308.15 K) was 3.738 kcal/mol, the ΔGsol0 (Table S6, n-hexane, 308.15 K) was 8.021 kcal/mol and the ΔSsol0 (Table S6, n-hexane, 308.15 K) was 50.75 J∙mol-1·K-1. For the same molecule, the ζTSsolv (Table S6, n-hexane, 308.15 K) was 37.53%, the “−TΔSsolv0” value (Table S6, n-hexane, 308.15 K) was 10.84 kcal/mol and the “−ΔGsolv0” value (Table S6, n-hexane, 308.15 K) was 7.204 kcal/mol. For the same molecule, the “−ΔSsolv0” value (Table S6, n-hexane, 308.15 K) was 147.20 J∙mol-1·K-1, the TΔSsol0 (Table S6, n-hexane, 313.15 K) was 3.793 kcal/mol and the ΔGsol0 (Table S6, n-hexane, 313.15 K) was 7.966 kcal/mol. The ζTSsolv (Table S6, n-hexane, 313.15 K) was 37.41%, the “−TΔSsolv0” value (Table S6, n-hexane, 313.15 K) was 10.79 kcal/mol and the “−ΔGsolv0” value (Table S6, n-hexane, 313.15 K) was 7.259 kcal/mol. The TΔSsol0 (Table S6, n-hexane, 318.15 K) was 3.841 kcal/mol, the ΔGsol0 (Table S6, n-hexane, 318.15 K) was 7.918 kcal/mol and the ΔSsol0 (Table S6, n-hexane, 318.15 K) was 50.50 J∙mol-1·K-1. For the same molecule, the ζHsolv (Table S6, n-hexane, 318.15 K) was 62.69%, the “−TΔSsolv0” value (Table S6, n-hexane, 318.15 K) was 10.74 kcal/mol and the “−ΔGsolv0” value (Table S6, n-hexane, 318.15 K) was 7.306 kcal/mol. For the same molecule, the “−ΔSsolv0” value (Table S6, n-hexane, 318.15 K) was 141.22 J∙mol-1·K-1, the ΔHsol0 [1] was 11.8 kcal/mol and the “−ΔHsolv0” value [1] was 18 kcal/mol. The ζHsolv (Table S6, water, 293.15 K) was 58.17%, the ζHsolv (Table S6, water, 298.15 K) was 58.17% and the “−ΔSsolv0” value (Table S6, water, 298.15 K) was 211.97 J∙mol-1·K-1. The ζHsolv (Table S6, water, 303.15 K) was 58.17%, the ζHsolv (Table S6, water, 308.15 K) was 58.13% and the “−TΔSsolv0” value (Table S6, water, 308.15 K) was 15.13 kcal/mol. The “−ΔGsolv0” value (Table S6, water, 308.15 K) was 5.877 kcal/mol, the “−ΔSsolv0” value (Table S6, water, 308.15 K) was 205.45 J∙mol-1·K-1 and the ζHsolv (Table S6, water, 313.15 K) was 58.12%. The “−TΔSsolv0” value (Table S6, water, 313.15 K) was 15.14 kcal/mol, the “−ΔGsolv0” value (Table S6, water, 313.15 K) was 5.872 kcal/mol and the ΔHsol0 [2] was 8.8 kcal/mol. For the same molecule, the “−ΔHsolv0” value [2] was 21 kcal/mol, the TΔSsol0 (ethanol, 298.15 K) was 3.04 kcal/mol and the ΔGsol0 (ethanol, 298.15 K) was 3.87 kcal/mol. For the same molecule, the ΔHsol0 (ethanol, 298.15 K) was 6.91 ± 0.22 kcal/mol, the ΔSsol0 (ethanol, 298.15 K) was 42.6 ± 5.1 J∙mol^−1·K^−1 and the ζHsolv (ethanol, 298.15 K) was 66.5%. For the same molecule, the ζTSsolv (ethanol, 298.15 K) was 33.5%, the “−TΔSsolv0” value (ethanol, 298.15 K) was 11.5 kcal/mol and the “−ΔGsolv0” value (ethanol, 298.15 K) was 11.4 kcal/mol. The “−ΔHsolv0” value (ethanol, 298.15 K) was 22.9 kcal/mol, the “−ΔSsolv0” value (ethanol, 298.15 K) was 162.0 J∙mol^−1·K^−1 and the TΔSsol0 (n-hexane, 298.15 K) was 3.59 kcal/mol. The ΔGsol0 (n-hexane, 298.15 K) was 8.17 kcal/mol, the ΔHsol0 (n-hexane, 298.15 K) was 11.8 ± 0.17 kcal/mol and the ΔSsol0 (n-hexane, 298.15 K) was 50.3 ± 3.4 J∙mol^−1·K^−1. The ζHsolv (n-hexane, 298.15 K) was 62.1%, the ζTSsolv (n-hexane, 298.15 K) was 37.9% and the “−TΔSsolv0” value (n-hexane, 298.15 K) was 11 kcal/mol. The “−ΔGsolv0” value (n-hexane, 298.15 K) was 7.05 kcal/mol, the “−ΔHsolv0” value (n-hexane, 298.15 K) was 18 kcal/mol and the “−ΔSsolv0” value (n-hexane, 298.15 K) was 154.3 J∙mol^−1·K^−1. The TΔSsol0 (water, 298.15 K) was -0.526 kcal/mol, the ΔGsol0 (water, 298.15 K) was 9.32 kcal/mol and the ΔHsol0 (water, 298.15 K) was 8.8 ± 0.14 kcal/mol. The ΔSsol0 (water, 298.15 K) was −7.4 ± 0.3 J∙mol^−1·K^−1, the ζHsolv (water, 298.15 K) was 58.2% and the ζTSsolv (water, 298.15 K) was 41.8%. For the same molecule, the “−TΔSsolv0” value (water, 298.15 K) was 15.1 kcal/mol, the “−ΔGsolv0” value (water, 298.15 K) was 5.9 kcal/mol and the “−ΔHsolv0” value (water, 298.15 K) was 21 kcal/mol. For the same molecule, the “−ΔSsolv0” value (water, 298.15 K) was 212.0 J∙mol^−1·K^−1.
